# In patent US20130096067A1, “DROSOPHILA TUMOR STEM CELL MODEL AND USES THEREOF” (priority 2011, published 2013):
# Read-outs that look alike come from different tables or passages of the source. Square brackets hold non-standard residues; d marks the D form. Peptide text beside a SMILES is read from it. * marks the point of attachment. Sta = CC(C)C[C@H](N)[C@@H](O)CC(=O)O; Isovaleryl = CC(C)CC(=O)*; Cbz = O=C(OCc1ccccc1)*; CH2F = FC*
# Test system: Raf-1^gof intestinal tumors
# Conditions: for Log2 (fold) of luciferase activity relative to DMSO controls / Fold (luciferase activity relative to DMSO controls): ICCB compounds fed in vials to flies with one-day old Raf-1^gof tumors
# [1] = screen of 480 ICCB compounds in vials, compounds fed to flies with one-day old Raf-1^gof tumors, assessed three days later, esg-Gal4 luciferase
# [2] = screen of 480 ICCB compounds in vials, compounds fed to flies with one-day old Raf-1^gof tumors, assessed three days later, esg-Gal4 luciferase, averaged from multiple wells
# [3] = assessed three days later, averaged from multiple wells
# Note: test concentration or dose not given here.
Molecule,"Log2 (fold) (luciferase activity, log2 of the fold difference relative to DMSO controls) [1]","Fold (luciferase activity, fold difference relative to DMSO controls) [2]",Log2 (fold) of luciferase activity relative to DMSO controls (assessed three days later),Fold (luciferase activity relative to DMSO controls) [3],other results
CC(C)CC(=O)N[C@H](C(=O)N[C@H](C(=O)N[C@@H](CC(C)C)[C@@H](O)CC(=O)N[C@@H](C)C(=O)N[C@@H](CC(C)C)[C@@H](O)CC(=O)O)C(C)C)C(C)C [pepstatin] (Isovaleryl-VV[Sta]A[Sta]-OH),−0.491,0.711,–,–,–
CCCCNC(=O)NS(=O)(=O)c1ccc(C)cc1 [TOLBUTAMIDE],−0.494,0.710,–,–,–
O=C(O)c1ccccc1Nc1ccccc1,−0.355,0.782,–,–,–
Cyclo [Cyclo [Arg-Gly-Asp-D-Phe-Val]],−0.221,0.858,–,–,–
LY-171883,–,–,0.168,1.124 fold,–
CC(=O)C1=C(O)[C@@H]2[C@H]3c4c[nH]c5cccc(c45)C[C@H]3C(C)(C)N2C1=O [CYCLOPIAZONIC ACID],–,–,0.072,1.051 fold,–
CCCCC[C@@H](/C=C/C=C\CCCCCCCC(=O)O)OO [13(S)-HPODE],–,–,0.309,1.239 fold,–
CCCCC[C@H](O)/C=C/C=C\C/C=C\C/C=C\CCCC(=O)O [15(S)-HETE],−0.309,0.807,–,–,–
CN(C)c1ccc(/C=C2\C(=O)Nc3ccccc32)cc1 [SU-4312],–,–,0.118,1.085 fold,–
CCCCCCCCCCCCCCC[C@@H](O)[C@@H](N)CO [DIHYDROSPHINGOSINE],–,–,0.000,1.000 fold,–
CCCCCCCCCCCCCCC[C@H](O)[C@@H](N)CO (racemic) [DL-DIHYDROSPHINGOSINE],–,–,0.076,1.054 fold,–
CNC(=O)[C@H]1O[C@@H](n2cnc3c(NCc4cccc(I)c4)ncnc32)[C@H](O)[C@@H]1O [IB-MECA],–,–,−0.083,0.944 fold,–
CCCCCCCCCCCCCCCCOC[C@H](COP(=O)([O-])OCC[N+](C)(C)C)OC(C)=O [PAF C16],–,–,−0.190,0.876 fold,–
Cc1ccc(S(=O)(=O)/C=C/C#N)cc1 [BAY 11-7082],−0.470,0.722,–,–,–
PROSTAGLANDIN J2,−0.525,0.695,–,–,–
CS(=O)(=O)Nc1ccc([N+](=O)[O-])cc1Oc1ccccc1 [Nimesulide],−0.264,0.833,–,–,–
NCCc1c[nH]cn1 [HISTAMINE],–,–,−0.158,0.896 fold,–
CCCC[C@@H](C)[C@@H](OC(=O)C[C@@H](CC(=O)O)C(=O)O)[C@H](C[C@@H](C)C[C@H](O)CCCC[C@@H](O)C[C@H](O)[C@H](C)N)OC(=O)C[C@@H](CC(=O)O)C(=O)O [Fumonisin B1],−0.685,0.622,–,–,–
"CCCCCCCCCCCCCC(=O)N[C@H](C)[C@@H](O)c1ccccc1 [MAPP, D-erythro]",−0.266,0.832,–,–,–
CCCCCCCCCC(=O)N[C@H](CN1CCOCC1)[C@H](O)c1ccccc1 (racemic) [DL-PDMP],–,–,0.078,1.056 fold,–
O=C(O)CCC/C=C\C[C@@H]1[C@@H](/C=C/[C@@H](O)COc2cccc(C(F)(F)F)c2)[C@H](O)C[C@@H]1O (racemic) [FLUPROSTENOL],–,–,0.058,1.041 fold,–
CC1(C)CCC2=C(O1)c1ccccc1C(=O)C2=O [beta-lapachone],–,–,0.070,1.050 fold,–
CC(C)(C)n1nc(-c2ccc(Cl)cc2)c2c(N)ncnc21 [PP2],–,–,0.062,1.044 fold,–
FC(F)(F)c1ccccc1-n1ccnc1 [TRIM],–,–,−0.160,0.895 fold,–

Molecule,"Log2 (fold) (luciferase activity, log2 of the fold difference relative to DMSO controls) [1]","Fold (luciferase activity, fold difference relative to DMSO controls) [2]",Log2 (fold) of luciferase activity relative to DMSO controls (assessed three days later),Fold (luciferase activity relative to DMSO controls) [3],other results
CCCCC/C=C\C=C\[C@H](CCCCCCCC(=O)O)OO [9(S)-HPODE],−0.294,0.816,–,–,–
O=S(=O)(c1cccc2c(Cl)cccc12)N1CCCNCC1 [ML9],−0.458,0.728,–,–,–
Ro 20-1724,−0.242,0.846,–,–,–
CC1=C(/C=C/C(C)=C\C=C\C(C)=C\C(=O)O)C(C)(C)CCC1 [9-CIS RETINOIC ACID],−0.578,0.670,–,–,–
N#C/C(=C\c1ccc(O)c(O)c1)C(=O)OC/C=C/c1ccccc1 [CDC],−0.360,0.779,–,–,–
CC(C)COCC(CN(Cc1ccccc1)c1ccccc1)N1CCCC1 (stereo not drawn) [BEPRIDIL],–,–,−0.054,0.963 fold,–
O=C1Nc2ccccc2/C1=C1/Nc2ccccc2/C1=N\O [Indirubin-3′-monoxime],–,–,−0.025,0.983 fold,–
"CCCCCCCCCCCC=CCC=CCCCC(=O)O [EICOSA-5,8-DIENOIC ACID (20:2 n-12)]",–,–,−0.149,0.902 fold,–
CC(C)NCC(O)c1ccc(N)c(C#N)c1 (stereo not drawn) [CIMATEROL],−0.598,0.661,–,–,–
LYSOPHOSPHATIDIC ACID,−0.509,0.703,–,–,–
CCCCCCCC/C=C\CCCCCCCCOC[C@H](COP(=O)([O-])OCC[N+](C)(C)C)OC(C)=O [PAF C18:1],−0.420,0.747,–,–,–
CCCCC[C@H](O)/C=C/[C@@H]1[C@@H](CCCCCCC(=O)O)[C@@H](O)C[C@H]1O [PROSTAGLANDIN F1a],–,–,−0.208,0.866 fold,–
COC(=O)C1=C(C)NC(C)=C([N+](=O)[O-])C1c1ccccc1C(F)(F)F (stereo not drawn) [BAY K-8644],–,–,−0.027,0.982 fold,–
COc1cccc2c1C(=O)c1c(O)c3c(c(O)c1C2=O)C[C@@](O)(C(=O)CO)C[C@@H]3O[C@H]1C[C@H](N)[C@H](O)[C@H](C)O1 [doxorubicin],−0.520,0.697,–,–,–
CC1=NS(=O)(=O)c2cc(Cl)ccc2N1 [DIAZOXIDE],−0.257,0.837,–,–,–
COC(=O)C1=C(C)NC(C)=C(C(=O)OCCCN2CCC(c3ccccc3)(c3ccccc3)CC2)[C@H]1c1cccc([N+](=O)[O-])c1 [NIGULDIPINE],–,–,–,–,"Fold (luciferase activity, fold difference relative to DMSO controls) (in vivo): 0.812; Log2 (fold) (luciferase activity, log2 of the fold difference relative to DMSO controls) (in vivo): −0.301"
CCCC(=O)Nc1nc2c(ncn2C2O[C@H]3COP(=O)(O)O[C@@H]3[C@@H]2OC(=O)CCC)c(=O)[nH]1 (stereo partly drawn) [dibutyrylcyclic GMP],−0.342,0.789,–,–,–
CCCCC/C=C\C/C=C\C/C=C\C/C=C\CCCC(=O)O[C@@H](CO)COC(=O)CCCCCCCCCCCCCCCCC [1-STEAROYL-2-ARACHIDONOYL-GLYCEROL],−0.532,0.692,–,–,–
Cc1cccc(Nc2cc(Cl)nc(SCC(=O)O)n2)c1C [WY-14643],–,–,0.020,1.014 fold,–
O=C(O)c1cc([N+](=O)[O-])ccc1NCCCc1ccccc1 [NPPB],−0.439,0.738,–,–,–
CCCCC/C=C\C[C@@H](/C=C/C=C\C/C=C\CCCC(=O)O)OO [12(S)-HPETE],−0.571,0.673,–,–,–
COC(=O)C[C@H](NC(=O)[C@H](C)NC(=O)[C@@H](NC(=O)OCc1ccccc1)C(C)C)C(=O)CF [zVAD-FMK] (Cbz-Val-Ala-Asp(OMe)-CH2F),−0.597,0.661,–,–,–
COC(C)(C)CCCC(C)C/C=C/C(C)=C/C(=O)O (stereo not drawn) [METHOPRENE ACID],−0.328,0.796,–,–,–
O=C(O)CCC/C=C\C[C@@H]1[C@H](CNNC(=O)Nc2ccccc2)[C@H]2CC[C@@H]1O2 [SQ-29548],−0.606,0.657,–,–,–
